{"source": "paper PMC10721329", "about": "“Quisinostat is a brain-penetrant radiosensitizer in glioblastoma” (JCI Insight, 2023)", "key": {"orthotopic GB126 tumors [1]": {"system": "orthotopic GB126 tumors", "assay": "End-stage immunoblot of orthotopic GB126 tumors (H3K9/14ac, H3K27ac)", "assay_type": "in vivo, athymic nude mice", "settings": "endpoint PDX tumors, individual mice", "procedure": "All mice included in the survival study were processed for end-point PK and PD analyses once moribund. Plasma, tumor, and contralateral brain tissues were harvested 3 hours after dosing with 10 mg/kg QST, allowing for direct comparison of long-term treatment with the PK-PD data collected from acute (1-week) treatment with QST or combination therapy (Figure 8A). […] There were no significant differences in total or unbound drug concentrations in tumor or brain tissue between the monotherapy or combination therapy cohorts (Figure 8, E and F). Immunoblot analysis of dissected tumor samples confirmed that QST induced substantial histone H3 hyperacetylation in brain tumors, compared with untreated animals, consistent with an in vivo on-target effect (Figure 9, A and B). […]\n4). Protein concentrations from whole-cell extracts were determined using the Bradford Protein Assay (ThermoFisher Scientific). Equal amounts of protein (10-40 μg/lane) were loaded onto 10% or 12.5% sodium dodecyl sulfate–polyacrylamide gel electrophoresis gels and transferred to a polyvinylidene fluoride membrane (Millipore-Sigma).\nCellular protein from frozen tissue of non–tumor-bearing mouse brains, tumor-bearing mouse brains, and flank tumors were homogenized in a prechilled glass tissue grinder (VWR) with RIPA lysis buffer containing protease and phosphatase inhibitors (ThermoFisher Scientific), with 500 uL of RIPA buffer for 10 mg of tissue. Once homogenized, the tissue lysates were kept on ice for 30 minutes and vortexed every 10 minutes. The samples were then centrifuged at 15,000 rpm for 10 minutes at 4 °C to collect the protein lysates.\nMembranes were blocked with 5% nonfat milk for 1 hour at room temperature and incubated overnight with primary antibody at 4 °C. Primary antibodies used were rabbit anti-p21 […]\nSignaling Technologies, 9677), mouse anti-Histone H3 (1:1000, Cell Signaling 14269), mouse"}, "orthotopic GB126 tumors [2]": {"system": "orthotopic GB126 tumors", "assay": "RT-qPCR of neuronal genes in GB126 tumors", "assay_type": "in vivo, athymic nude mice", "settings": "relative to Vehicle mouse 1 = 1, individual mice", "procedure": "Reverse Transcription Quantitative Polymerase Chain Reaction\nTotal RNA was extracted from orthotopic tumors by using the RNeasy Mini Kit (Qiagen) in accordance with the manufacturer’s instructions. RNA was quantified on a NanoDrop Spectrophotometer ([…]), and 1 μg of total RNA was used for complementary DNA synthesis by using the SuperScript VILO kit (Life Technologies). Quantitative polymerase chain reaction was performed using inventoried TaqMan assays for respective target genes and housekeeping control genes (18S) on the QuantStudio 6 Flex Real -Time PCR System (Life Technologies).\nFold change in gene expression was analyzed using the delta delta Ct method."}, "[3]": {"system": "7 patient-derived GSC lines and U87", "assay": "Dose-titration cell viability assay, whole panel", "assay_type": "cell-based", "settings": "Homo sapiens; 7 GSC lines and U87; 3-5 days; read-out: cellular IC50 in all lines", "procedure": "QST (JNJ-26481585) is a second-generation hydroxamic acid harboring remarkable selectivity toward class I HDACs, with a biochemical IC50 of 0.1 nM for HDAC1 ([13]). […] To determine the cytotoxic effects of QST, we performed a dose-titration cell viability assay in 7 patient-derived GSC lines (BT145, GB187, GB239, GB282, GB71, GB82, and GB126) and 1 long-term serum-grown human GBM cell line (U87). Because GBMs display a high degree of intratumoral heterogeneity, we used GSCs derived from both primary and recurrent GBMs that harbored distinct genetic mutations or aberrations, growth rates, MGMT promoter methylation status, and gene expression profiles (Supplemental Figure 1; supplemental material available online with this article; https://doi.org/10.1172/jci.insight.167081DS1). Cell lines were treated with various concentrations of QST (10–1000 nM), and cell viability was measured 3–5 days later (Figure 1, A and B). […]\nGSCs were seeded in laminin-coated tissue culture–treated 96-well plates (clear bottom, white plate; Corning) at a density of 1000–5000 cells per well (cell line dependent) in GSC media. […] Following treatment with QST, cells were grown for 3 to 5 days (cell line dependent), and cell viability was measured and quantified. […]"}}, "note": "Values joined by “and” are separate entries in the source; they are usually repeats but may differ in a detail not shown here. Equal values may be shown once."}
{"smiles": "Cn1cc(CNCC2CCN(c3ncc(C(=O)NO)cn3)CC2)c2ccccc21", "note": "[QST, quisinostat]", "values": [{"measurement": "H3K9/14ac levels normalized to B-actin", "setting": "orthotopic GB126 tumors [1]; QST + IR", "value": "7.331 fold change and 7.39 fold change and 6.951 fold change"}, {"measurement": "H3K27ac levels normalized to B-actin", "setting": "orthotopic GB126 tumors [1]; QST + IR", "value": "1.842 fold change and 4.36 fold change and 3.819 fold change"}, {"measurement": "H3K9/14ac levels normalized to B-actin", "setting": "orthotopic GB126 tumors [1]; QST", "value": "5.4 fold change and 6.4803 fold change and 5.818 fold change"}, {"measurement": "H3K27ac levels normalized to B-actin", "setting": "orthotopic GB126 tumors [1]; QST", "value": "4.65 fold change and 3.97 fold change and 2.306 fold change"}, {"measurement": "qPCR CECR2 expression", "setting": "orthotopic GB126 tumors [2]; Combo (QST + IR)", "value": "90.297 and 227.304 and 107.431"}, {"measurement": "qPCR GABRA2 expression", "setting": "orthotopic GB126 tumors [2]; Combo (QST + IR)", "value": "62.6009 and 92.8255 and 56.6887"}, {"measurement": "qPCR SCN3A expression", "setting": "orthotopic GB126 tumors [2]; Combo (QST + IR)", "value": "28.0147 and 63.295 and 75.3722"}, {"measurement": "qPCR BDNF expression", "setting": "orthotopic GB126 tumors [2]; QST + IR", "value": "14.0587 and 9.35 and 2.8459"}, {"measurement": "qPCR KCNQ3 expression", "setting": "orthotopic GB126 tumors [2]; QST + IR", "value": "9.67 and 10.8552 and 27.8625"}, {"measurement": "qPCR NGFR expression", "setting": "orthotopic GB126 tumors [2]; QST + IR", "value": "3.525 and 9.249 and 10.5627"}, {"measurement": "qPCR BDNF expression", "setting": "orthotopic GB126 tumors [2]; QST", "value": "5.022 and 6.518 and 12.9199"}, {"measurement": "qPCR CECR2 expression", "setting": "orthotopic GB126 tumors [2]; QST", "value": "38.4564 and 79.55 and 112.554"}, {"measurement": "qPCR GABRA2 expression", "setting": "orthotopic GB126 tumors [2]; QST", "value": "1.543 and 82.6227 and 31.8541"}, {"measurement": "qPCR KCNQ3 expression", "setting": "orthotopic GB126 tumors [2]; QST", "value": "1.23 and 4.886 and 2.677"}, {"measurement": "qPCR NGFR expression", "setting": "orthotopic GB126 tumors [2]; QST", "value": "13.22 and 5.955 and 12.7613"}, {"measurement": "qPCR SCN3A expression", "setting": "orthotopic GB126 tumors [2]; QST", "value": "6.113 and 76.4987 and 9.293"}, {"measurement": "IC50", "setting": "[3]", "value": "50 to 100", "unit": "nM"}]}
